Data published in patent publication US20260007681A1, “INDOLE DERIVATIVES AS ESTROGEN RECEPTOR DEGRADERS” (REGENTS OF THE UNIVERSITY OF MICHIGAN, priority 2022, published 2026).

What follows are molecules tested against ER (Homo sapiens (Human), UniProt P03372) (assay: Western blot analysis (Compounds B1-B278)). Details: ER degradation by traditional Western blot; DC50 classes.
Format: cell-based
Protocol: Western Blot Analysis. The cells that are treated with the compounds are lysed in Radioimmunoprecipitation Assay Protein Lysis and Extraction Buffer (e.g., 25 mmol/L Tris.HCl, pH 7.6, 150 mmol/L NaCl, 1% Nonidet P-40, 1% sodium deoxycholate, and 0.1% sodium dodecyl sulfate) containing proteinase inhibitor cocktail. Equal amounts of total protein are electrophoresed through 10% SDS-polyacrylamide gels after determination of protein concentration by BCA assay. The separated protein bands are transferred onto PVDF membranes and blotted against different antibodies. The blots are scanned, and the band intensities are quantified (e.g., by using GelQuant.NET software provided by biochemlabsolutions.com). The relative mean intensity of target proteins is expressed after normalization to the intensity of glyceraldehyde-3-phosphate dehydrogenase bands.
Western Blot Analysis. Western blot analysis was performed essentially as described previously. The cells treated with indicated compounds were lysed in Radioimmunoprecipitation Assay Protein Lysis and Extraction Buffer (25 mmol/L Tris.HCl, pH 7.6, 150 mmol/L NaCl, 1% Nonidet P-40, 1% sodium deoxycholate, and 0.1% sodium dodecyl sulfate) containing proteinase inhibitor cocktail (Roche Diagnostics, Mannheim, Germany). Equal amounts of total protein were electrophoresed through 10% SDS-polyacrylamide gels after determination of protein concentration by BCA assay (Fisher Scientific, Pittsburgh, PA). The separated protein bands were transferred onto PVDF membranes (GE Healthcare Life Sciences, Marlborough, MA) and blotted against different antibodies, as indicated. The blots were scanned, and the band intensities were quantified using GelQuant.NET software provided by biochemlabsolutions.com. The relative mean intensity of target proteins was expressed after normalization to the intensity of glyceraldehyde-3-phosphate dehydrogenase bands.

Sequence of ER (P03372 whole entry): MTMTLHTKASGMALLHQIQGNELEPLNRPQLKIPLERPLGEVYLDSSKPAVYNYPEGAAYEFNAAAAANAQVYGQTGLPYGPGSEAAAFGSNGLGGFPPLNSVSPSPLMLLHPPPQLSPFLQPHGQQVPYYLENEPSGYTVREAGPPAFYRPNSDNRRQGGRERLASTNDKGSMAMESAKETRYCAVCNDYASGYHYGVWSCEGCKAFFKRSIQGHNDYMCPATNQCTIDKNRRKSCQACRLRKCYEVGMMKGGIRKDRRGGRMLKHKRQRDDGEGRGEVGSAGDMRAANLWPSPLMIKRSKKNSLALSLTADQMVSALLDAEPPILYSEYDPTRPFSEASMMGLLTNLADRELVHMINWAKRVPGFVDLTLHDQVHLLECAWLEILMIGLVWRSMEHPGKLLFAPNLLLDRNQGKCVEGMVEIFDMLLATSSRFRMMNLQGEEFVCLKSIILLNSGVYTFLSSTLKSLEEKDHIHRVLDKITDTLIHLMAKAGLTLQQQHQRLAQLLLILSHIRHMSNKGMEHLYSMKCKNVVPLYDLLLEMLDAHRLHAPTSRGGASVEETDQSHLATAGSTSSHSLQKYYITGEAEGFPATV

With C[C@@H]1Cc2c([nH]c3ccccc23)[C@@H](c2c(F)cc(N3CCC(N4CCN(CC(=O)N5Cc6cc7c(cc6C5)C(=O)N(C5CCC(=O)NC5=O)C7)CC4)CC3)cc2F)N1CC(F)F (stereo partly drawn) [Compound B36, 3-(6-(2-(4-(1-(4-((1R,3R)-2-(2,2-difluoroethyl)-3-methyl-2,3,4,9-tetrahydro-1H-pyrido[3,4-b]indol-1-yl)-3,5-difluorophenyl)piperidin-4-yl)piperazin-1-yl)acetyl)-1-oxo-3,5,6,7-tetrahydropyrrolo[3,4-f]isoindol-2(1H)-yl)piperidine-2,6-dione] as the molecule, how does the “Traditional Western Degradation Potency” value read?
The value was “A (“A”: <10 nM)”.

With C[C@@H]1Cc2c([nH]c3ccccc23)[C@@H](c2c(F)cc(N3CC4(CCN(CC(=O)N5Cc6cc7c(cc6C5)C(=O)N(C5CCC(=O)NC5=O)C7=O)CC4)C3)cc2F)N1CC(F)F (stereo partly drawn) [Compound B37, 6-(2-(2-(4-((1R,3R)-2-(2,2-difluoroethyl)-3-methyl-2,3,4,9-tetrahydro-1H-pyrido[3,4-b]indol-1-yl)-3,5-difluorophenyl)-2,7-diazaspiro[3.5]nonan-7-yl)acetyl)-2-(2,6-dioxopiperidin-3-yl)-6,7-dihydropyrrolo[3,4-f]isoindole-1,3(2H,5H)-dione] as the molecule, how does the “Traditional Western Degradation Potency” value read?
Its value is “B (“B”: 10-100 nM)”.

C[C@@H]1Cc2c([nH]c3ccccc23)[C@@H](c2c(F)cc(N3CC4(CCN(CC(=O)N5Cc6cc7c(cc6C5)C(=O)N(C5CCC(=O)NC5=O)C7)CC4)C3)cc2F)N1CC(F)F (stereo partly drawn) [Compound B38, 3-(6-(2-(2-(4-((1R,3R)-2-(2,2-difluoroethyl)-3-methyl-2,3,4,9-tetrahydro-1H-pyrido[3,4-b]indol-1-yl)-3,5-difluorophenyl)-2,7-diazaspiro[3.5]nonan-7-yl)acetyl)-1-oxo-3,5,6,7-tetrahydropyrrolo[3,4-f]isoindol-2(1H)-yl)piperidine-2,6-dione] was tested. Which “Traditional Western Degradation Potency” value did it give?
Its value is “A (“A”: <10 nM)”.

With C[C@@H]1Cc2c([nH]c3ccccc23)[C@@H](c2c(F)cc(N3CCC4(CC3)CC(C(=O)N3CCC(CN5Cc6cc7c(cc6C5)C(=O)N(C5CCC(=O)NC5=O)C7=O)CC3)C4)cc2F)N1CC(F)F (stereo partly drawn) [Compound B39, 6-((1-(7-(4-((1R,3R)-2-(2,2-difluoroethyl)-3-methyl-2,3,4,9-tetrahydro-1H-pyrido[3,4-b]indol-1-yl)-3,5-difluorophenyl)-7-azaspiro[3.5]nonane-2-carbonyl)piperidin-4-yl)methyl)-2-(2,6-dioxopiperidin-3-yl)-6,7-dihydropyrrolo[3,4-f]isoindole-1,3(2H,5H)-dione] as the molecule, how does the “Traditional Western Degradation Potency” value read?
Its value is “B (“B”: 10-100 nM)”.

Which “Traditional Western Degradation Potency” value does the source give for C[C@@H]1Cc2c([nH]c3ccccc23)[C@@H](c2c(F)cc(N3CCC4(CC3)CC(C(=O)N3CCC(N5Cc6cc7c(cc6C5)C(=O)N(C5CCC(=O)NC5=O)C7=O)CC3)C4)cc2F)N1CC(F)F (stereo partly drawn) [Compound B40, 6-(1-(7-(4-((1R,3R)-2-(2,2-difluoroethyl)-3-methyl-2,3,4,9-tetrahydro-1H-pyrido[3,4-b]indol-1-yl)-3,5-difluorophenyl)-7-azaspiro[3.5]nonane-2-carbonyl)piperidin-4-yl)-2-(2,6-dioxopiperidin-3-yl)-6,7-dihydropyrrolo[3,4-f]isoindole-1,3(2H,5H)-dione] here?
Its value is “A (“A”: <10 nM)”.

With C[C@@H]1Cc2c([nH]c3ccccc23)[C@@H](c2c(F)cc(N3CCC4(CC3)CC(C(=O)N3CCC(N5Cc6cc7c(cc6C5)C(=O)N(C5CCC(=O)NC5=O)C7)CC3)C4)cc2F)N1CC(F)F (stereo partly drawn) [Compound B41, 3-(6-(1-(7-(4-((1R,3R)-2-(2,2-difluoroethyl)-3-methyl-2,3,4,9-tetrahydro-1H-pyrido[3,4-b]indol-1-yl)-3,5-difluorophenyl)-7-azaspiro[3.5]nonane-2-carbonyl)piperidin-4-yl)-1-oxo-3,5,6,7-tetrahydropyrrolo[3,4-f]isoindol-2(1H)-yl)piperidine-2,6-dione] as the molecule, how does the “Traditional Western Degradation Potency” value read?
The value was “A (“A”: <10 nM)”.

How did the “Traditional Western Degradation Potency” value turn out when C[C@@H]1Cc2c([nH]c3ccccc23)[C@@H](c2c(F)cc(N3CC(CC(=O)N4Cc5cc6c(cc5C4)C(=O)N(C4CCC(=O)NC4=O)C6)C3)cc2F)N1CC(F)F (stereo partly drawn) [Compound B42, 3-(6-(2-(1-(4-((1R,3R)-2-(2,2-difluoroethyl)-3-methyl-2,3,4,9-tetrahydro-1H-pyrido[3,4-b]indol-1-yl)-3,5-difluorophenyl)azetidin-3-yl)acetyl)-1-oxo-3,5,6,7-tetrahydropyrrolo[3,4-f]isoindol-2(1H)-yl)piperidine-2,6-dione] was run?
The value was “C (“C”: >100 nM)”.

Which “Traditional Western Degradation Potency” value does the source give for C[C@@H]1Cc2c([nH]c3ccccc23)[C@@H](c2c(F)cc(N3CC(CC(=O)N4CC(N5Cc6cc7c(cc6C5)C(=O)N(C5CCC(=O)NC5=O)C7)C4)C3)cc2F)N1CC(F)F (stereo partly drawn) [Compound B43, 3-(6-(1-(2-(1-(4-((1R,3R)-2-(2,2-difluoroethyl)-3-methyl-2,3,4,9-tetrahydro-1H-pyrido[3,4-b]indol-1-yl)-3,5-difluorophenyl)azetidin-3-yl)acetyl)azetidin-3-yl)-1-oxo-3,5,6,7-tetrahydropyrrolo[3,4-f]isoindol-2(1H)-yl)piperidine-2,6-dione] here?
The value was “B (“B”: 10-100 nM)”.

With C[C@@H]1Cc2c([nH]c3ccccc23)[C@@H](c2c(F)cc(N3CCC(CC(=O)N4Cc5cc6c(cc5C4)C(=O)N(C4CCC(=O)NC4=O)C6)CC3)cc2F)N1CC(F)F (stereo partly drawn) [Compound B44, 3-(6-(2-(1-(4-((1R,3R)-2-(2,2-difluoroethyl)-3-methyl-2,3,4,9-tetrahydro-1H-pyrido[3,4-b]indol-1-yl)-3,5-difluorophenyl)piperidin-4-yl)acetyl)-1-oxo-3,5,6,7-tetrahydropyrrolo[3,4-f]isoindol-2(1H)-yl)piperidine-2,6-dione] as the molecule, how does the “Traditional Western Degradation Potency” value read?
Its value is “C (“C”: >100 nM)”.

How did the “Traditional Western Degradation Potency” value turn out when C[C@@H]1Cc2c([nH]c3ccccc23)[C@@H](c2c(F)cc(N3CC4(CCCN(CC(=O)N5Cc6cc7c(cc6C5)C(=O)N(C5CCC(=O)NC5=O)C7=O)C4)C3)cc2F)N1CC(F)F (stereo partly drawn) [Compound B45, 6-(2-(2-(4-((1R,3R)-2-(2,2-difluoroethyl)-3-methyl-2,3,4,9-tetrahydro-1H-pyrido[3,4-b]indol-1-yl)-3,5-difluorophenyl)-2,6-diazaspiro[3.5]nonan-6-yl)acetyl)-2-(2,6-dioxopiperidin-3-yl)-6,7-dihydropyrrolo[3,4-f]isoindole-1,3(2H,5H)-dione] was run?
The value was “C (“C”: >100 nM)”.

For C[C@@H]1Cc2c([nH]c3ccccc23)[C@@H](c2c(F)cc(N3CC4(CCCN(CC(=O)N5Cc6cc7c(cc6C5)C(=O)N(C5CCC(=O)NC5=O)C7)C4)C3)cc2F)N1CC(F)F (stereo partly drawn) [Compound B46, 3-(6-(2-(2-(4-((1R,3R)-2-(2,2-difluoroethyl)-3-methyl-2,3,4,9-tetrahydro-1H-pyrido[3,4-b]indol-1-yl)-3,5-difluorophenyl)-2,6-diazaspiro[3.5]nonan-6-yl)acetyl)-1-oxo-3,5,6,7-tetrahydropyrrolo[3,4-f]isoindol-2(1H)-yl)piperidine-2,6-dione], which “Traditional Western Degradation Potency” value is on record?
The value was “B (“B”: 10-100 nM)”.

How did the “Traditional Western Degradation Potency” value turn out when C[C@@H]1Cc2c([nH]c3ccccc23)[C@@H](c2c(F)cc(N3CCC4(CCN(CC(=O)N5Cc6cc7c(cc6C5)C(=O)N(C5CCC(=O)NC5=O)C7=O)CC4)C3)cc2F)N1CC(F)F (stereo partly drawn) [Compound B47, 6-(2-(2-(4-((1R,3R)-2-(2,2-difluoroethyl)-3-methyl-2,3,4,9-tetrahydro-1H-pyrido[3,4-b]indol-1-yl)-3,5-difluorophenyl)-2,8-diazaspiro[4.5]decan-8-yl)acetyl)-2-(2,6-dioxopiperidin-3-yl)-6,7-dihydropyrrolo[3,4-f]isoindole-1,3(2H,5H)-dione] was run?
Its value is “A (“A”: <10 nM)”.

Which “Traditional Western Degradation Potency” value does the source give for C[C@@H]1Cc2c([nH]c3ccccc23)[C@@H](c2c(F)cc(N3CCC4(CCN(CC(=O)N5Cc6cc7c(cc6C5)C(=O)N(C5CCC(=O)NC5=O)C7)CC4)C3)cc2F)N1CC(F)F (stereo partly drawn) [Compound B48, 3-(6-(2-(2-(4-((1R,3R)-2-(2,2-difluoroethyl)-3-methyl-2,3,4,9-tetrahydro-1H-pyrido[3,4-b]indol-1-yl)-3,5-difluorophenyl)-2,8-diazaspiro[4.5]decan-8-yl)acetyl)-1-oxo-3,5,6,7-tetrahydropyrrolo[3,4-f]isoindol-2(1H)-yl)piperidine-2,6-dione] here?
Its value is “A (“A”: <10 nM)”.

How did the “Traditional Western Degradation Potency” value turn out when C[C@@H]1Cc2c([nH]c3ccccc23)[C@@H](c2c(F)cc(N3CCC(N4CCC(C(=O)N5Cc6cc7c(cc6C5)C(=O)N(C5CCC(=O)NC5=O)C7=O)CC4)C3)cc2F)N1CC(F)F (stereo partly drawn) [Compound B50, 6-(1-(1-(4-((1R,3R)-2-(2,2-difluoroethyl)-3-methyl-2,3,4,9-tetrahydro-1H-pyrido[3,4-b]indol-1-yl)-3,5-difluorophenyl)pyrrolidin-3-yl)piperidine-4-carbonyl)-2-(2,6-dioxopiperidin-3-yl)-6,7-dihydropyrrolo[3,4-f]isoindole-1,3(2H,5H)-dione] was run?
The value was “C (“C”: >100 nM)”.
